Source: US20200316038A1, “METHODS AND COMPOSITIONS FOR TREATING UREA CYCLE DISORDERS, IN PARTICULAR OTC DEFICIENCY” (CAMP4 THERAPEUTICS CORPORATION, priority 2017, published 2020)
Where two headings read alike, the source gives them in different places.

Columns and labels:
[1] = tested on: calcium channel; conditions: calcium channel blocker; cited from earlier work
[2] = tested on: NAGS
[3] = tested on: OTC; assay: OTC expression modulated by compounds (OTC/Geo Mean of HKs, DMSO = 1); format: cell-based, human; conditions: OTC expression; compound at 10 uM final concentration
[4] = target: c-Kit (Homo sapiens, UniProt P10721); conditions: cited from earlier work
[5] = tested on: ASS1; assay: RNA-seq, ASS1 expression in compound-treated primary human hepatocytes; format: cell-based
[6] = tested on: multiple urea cycle-related genes; assay: RNA-seq, compounds that modulate multiple urea cycle-related genes; format: cell-based; conditions: primary human hepatocytes; for Up-regulated Genes: urea cycle-related genes significantly increased by the compound
[7] = tested on: CPS1; assay: RNA-seq, CPS1 expression in compound-treated primary human hepatocytes; format: cell-based
[8] = tested on: ARG1; assay: RNA-seq, ARG1 expression in compound-treated primary human hepatocytes; format: cell-based
[9] = tested on: PDGFRα; conditions: cited from earlier work; for IC50: PDGFRα
[10] = tested on: OTC; assay: RNA-seq, OTC expression in compound-treated primary human hepatocytes; format: cell-based
[11] = tested on: ASL; assay: RNA-seq, ASL expression in compound-treated primary human hepatocytes; format: cell-based
[12] = target: FLT3 (Homo sapiens, UniProt P36888); conditions: cited from earlier work
Chain of FLT3 (P36888 27-993, species assumed): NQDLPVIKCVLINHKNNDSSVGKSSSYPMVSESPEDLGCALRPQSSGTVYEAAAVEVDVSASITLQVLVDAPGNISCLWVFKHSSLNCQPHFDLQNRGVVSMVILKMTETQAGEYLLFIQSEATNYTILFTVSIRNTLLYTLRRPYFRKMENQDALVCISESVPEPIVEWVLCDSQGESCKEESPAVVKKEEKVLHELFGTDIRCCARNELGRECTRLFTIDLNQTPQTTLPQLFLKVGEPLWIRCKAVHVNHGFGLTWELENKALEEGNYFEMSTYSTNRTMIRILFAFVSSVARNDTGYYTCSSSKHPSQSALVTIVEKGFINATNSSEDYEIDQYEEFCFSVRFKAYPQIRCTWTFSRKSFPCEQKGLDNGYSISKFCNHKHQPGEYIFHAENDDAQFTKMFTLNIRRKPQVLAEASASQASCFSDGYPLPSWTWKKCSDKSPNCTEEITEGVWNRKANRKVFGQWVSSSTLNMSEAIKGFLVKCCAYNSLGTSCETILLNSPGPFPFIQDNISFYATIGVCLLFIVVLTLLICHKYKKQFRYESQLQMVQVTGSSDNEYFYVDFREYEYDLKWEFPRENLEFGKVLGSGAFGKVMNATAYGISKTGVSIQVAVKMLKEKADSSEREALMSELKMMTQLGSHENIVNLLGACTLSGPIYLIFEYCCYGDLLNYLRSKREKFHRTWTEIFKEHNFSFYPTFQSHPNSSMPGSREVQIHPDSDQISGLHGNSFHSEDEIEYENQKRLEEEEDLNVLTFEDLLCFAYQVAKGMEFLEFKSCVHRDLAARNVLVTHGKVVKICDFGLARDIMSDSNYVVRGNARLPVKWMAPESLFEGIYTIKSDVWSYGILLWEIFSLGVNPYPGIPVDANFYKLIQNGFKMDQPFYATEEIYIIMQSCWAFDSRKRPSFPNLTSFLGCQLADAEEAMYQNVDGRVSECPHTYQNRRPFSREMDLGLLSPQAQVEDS

[13] = tested on: HSP90; conditions: cited from earlier work
[14] = target: RARβ (Homo sapiens, UniProt P10826); conditions: cited from earlier work
Chain of RARβ (P10826 whole entry, species assumed): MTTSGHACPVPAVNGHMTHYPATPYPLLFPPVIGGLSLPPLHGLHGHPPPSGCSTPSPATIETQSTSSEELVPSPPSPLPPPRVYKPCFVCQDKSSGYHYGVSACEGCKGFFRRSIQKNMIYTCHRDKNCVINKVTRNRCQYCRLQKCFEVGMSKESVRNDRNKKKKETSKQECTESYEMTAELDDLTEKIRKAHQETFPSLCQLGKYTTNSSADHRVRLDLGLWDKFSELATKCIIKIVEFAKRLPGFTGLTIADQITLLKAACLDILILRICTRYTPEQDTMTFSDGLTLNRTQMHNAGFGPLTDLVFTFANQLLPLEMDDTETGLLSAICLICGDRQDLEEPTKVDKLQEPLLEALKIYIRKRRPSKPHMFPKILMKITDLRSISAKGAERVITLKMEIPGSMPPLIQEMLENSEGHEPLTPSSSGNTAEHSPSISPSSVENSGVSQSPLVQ

[15] = target: RARα (Homo sapiens, UniProt P10276); conditions: cited from earlier work
Chain of RARα (P10276 whole entry, species assumed): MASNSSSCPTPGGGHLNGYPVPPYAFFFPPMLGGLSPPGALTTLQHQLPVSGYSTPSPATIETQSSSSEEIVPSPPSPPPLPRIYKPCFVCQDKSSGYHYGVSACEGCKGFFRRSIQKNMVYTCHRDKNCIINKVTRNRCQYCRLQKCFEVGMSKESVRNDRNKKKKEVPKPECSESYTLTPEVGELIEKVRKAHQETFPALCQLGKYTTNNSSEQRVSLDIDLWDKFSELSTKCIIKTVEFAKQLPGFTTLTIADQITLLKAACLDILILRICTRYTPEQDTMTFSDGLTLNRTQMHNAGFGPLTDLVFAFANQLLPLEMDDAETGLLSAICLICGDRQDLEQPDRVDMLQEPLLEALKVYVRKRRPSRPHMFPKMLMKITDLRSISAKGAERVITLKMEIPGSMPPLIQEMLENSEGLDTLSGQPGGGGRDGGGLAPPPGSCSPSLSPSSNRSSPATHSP

[16] = target: RARγ (Homo sapiens, UniProt P13631); conditions: cited from earlier work
[17] = tested on: SLC25A15; assay: RNA-seq, SLC25A15 expression in compound-treated primary human hepatocytes; format: cell-based; conditions: compounds that significantly increase SLC25A15 expression
[18] = target: PDGFRβ (Homo sapiens, UniProt P09619); conditions: cited from earlier work
Chain of PDGFRβ (P09619 33-1106, species assumed): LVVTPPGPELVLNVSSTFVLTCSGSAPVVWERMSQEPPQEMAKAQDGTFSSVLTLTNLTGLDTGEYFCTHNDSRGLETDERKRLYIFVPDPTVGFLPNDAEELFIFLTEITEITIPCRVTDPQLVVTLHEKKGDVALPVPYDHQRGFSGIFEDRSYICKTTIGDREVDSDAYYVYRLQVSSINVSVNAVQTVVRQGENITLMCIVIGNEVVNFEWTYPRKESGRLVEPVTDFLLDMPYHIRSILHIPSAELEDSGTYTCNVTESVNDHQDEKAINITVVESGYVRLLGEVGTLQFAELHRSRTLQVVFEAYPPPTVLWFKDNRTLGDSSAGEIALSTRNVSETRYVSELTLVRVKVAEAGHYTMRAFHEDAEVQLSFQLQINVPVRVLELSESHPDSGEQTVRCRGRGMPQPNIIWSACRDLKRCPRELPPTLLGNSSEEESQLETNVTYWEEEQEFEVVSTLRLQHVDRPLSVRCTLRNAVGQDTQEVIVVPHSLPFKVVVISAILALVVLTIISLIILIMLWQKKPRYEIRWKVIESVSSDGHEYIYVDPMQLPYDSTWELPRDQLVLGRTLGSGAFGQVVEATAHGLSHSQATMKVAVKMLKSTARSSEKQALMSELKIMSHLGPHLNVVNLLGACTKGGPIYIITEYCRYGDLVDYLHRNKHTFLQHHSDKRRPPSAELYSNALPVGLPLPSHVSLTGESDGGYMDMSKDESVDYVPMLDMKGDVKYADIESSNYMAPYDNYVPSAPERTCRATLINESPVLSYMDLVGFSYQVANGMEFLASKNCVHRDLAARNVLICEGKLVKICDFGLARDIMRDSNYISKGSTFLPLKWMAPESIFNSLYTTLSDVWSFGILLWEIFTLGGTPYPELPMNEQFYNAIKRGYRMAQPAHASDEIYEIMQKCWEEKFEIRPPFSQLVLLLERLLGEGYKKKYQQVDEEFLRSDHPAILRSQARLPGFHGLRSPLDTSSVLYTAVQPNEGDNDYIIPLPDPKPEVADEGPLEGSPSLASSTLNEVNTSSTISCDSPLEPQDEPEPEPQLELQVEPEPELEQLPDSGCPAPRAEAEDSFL

[19] = tested on: PKC; conditions: PKC (fourth in the list); cited from earlier work
[20] = target: PKCα (Homo sapiens, UniProt P17252); conditions: cited from earlier work
[21] = target: PKCγ (Homo sapiens, UniProt P05129); conditions: cited from earlier work
[22] = target: PKCβ (Homo sapiens, UniProt P05771); conditions: cited from earlier work
[23] = target: T1, y-secretase (Homo sapiens, UniProt P49768); conditions: cleavage of APP to Aβ40 in human neuroblastoma SH-SYSY cells; cited from earlier work
T1 construct: endogenous in cells; host or cells: human neuroblastoma SH-SY5Y cells (printed 'SH-SYSY')

[24] = target: c-Met (Homo sapiens, UniProt P08581); conditions: MET tyrosine kinase; cited from earlier work
Chain of c-Met (P08581 25-1390): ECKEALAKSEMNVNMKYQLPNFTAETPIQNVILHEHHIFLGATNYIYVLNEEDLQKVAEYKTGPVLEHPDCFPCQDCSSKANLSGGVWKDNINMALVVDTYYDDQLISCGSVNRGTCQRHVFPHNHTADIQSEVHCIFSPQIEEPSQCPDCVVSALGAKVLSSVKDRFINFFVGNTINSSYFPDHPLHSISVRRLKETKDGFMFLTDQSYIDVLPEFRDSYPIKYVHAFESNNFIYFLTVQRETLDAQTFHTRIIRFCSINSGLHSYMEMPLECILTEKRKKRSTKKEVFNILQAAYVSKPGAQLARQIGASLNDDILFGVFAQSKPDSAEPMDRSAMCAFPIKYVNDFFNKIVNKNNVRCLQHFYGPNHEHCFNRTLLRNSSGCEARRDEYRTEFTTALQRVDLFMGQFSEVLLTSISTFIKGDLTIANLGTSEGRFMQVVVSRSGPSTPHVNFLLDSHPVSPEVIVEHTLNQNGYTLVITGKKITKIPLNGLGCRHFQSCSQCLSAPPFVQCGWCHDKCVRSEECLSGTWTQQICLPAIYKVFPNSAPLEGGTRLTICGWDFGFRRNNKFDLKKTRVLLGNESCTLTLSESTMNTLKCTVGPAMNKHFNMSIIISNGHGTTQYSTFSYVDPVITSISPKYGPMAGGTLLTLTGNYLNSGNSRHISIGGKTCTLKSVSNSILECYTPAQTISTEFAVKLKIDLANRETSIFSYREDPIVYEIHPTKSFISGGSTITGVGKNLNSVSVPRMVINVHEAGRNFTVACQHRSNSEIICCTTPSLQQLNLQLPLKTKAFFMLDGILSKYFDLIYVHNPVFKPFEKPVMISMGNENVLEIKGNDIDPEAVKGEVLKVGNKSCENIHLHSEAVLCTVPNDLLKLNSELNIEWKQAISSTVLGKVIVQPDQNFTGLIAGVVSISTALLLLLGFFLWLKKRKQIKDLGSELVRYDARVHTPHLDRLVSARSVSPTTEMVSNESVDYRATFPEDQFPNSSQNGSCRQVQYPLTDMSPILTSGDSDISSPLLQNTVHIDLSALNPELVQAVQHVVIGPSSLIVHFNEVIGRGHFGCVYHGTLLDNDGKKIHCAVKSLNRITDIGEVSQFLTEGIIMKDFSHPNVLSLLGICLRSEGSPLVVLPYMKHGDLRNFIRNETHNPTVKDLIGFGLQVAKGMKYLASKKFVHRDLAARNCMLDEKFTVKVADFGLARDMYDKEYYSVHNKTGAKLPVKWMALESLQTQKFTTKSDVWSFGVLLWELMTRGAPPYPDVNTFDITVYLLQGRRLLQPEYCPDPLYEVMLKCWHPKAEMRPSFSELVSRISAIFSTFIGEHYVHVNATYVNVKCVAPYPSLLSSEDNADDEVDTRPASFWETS

[25] = target: PDK1 (Homo sapiens, UniProt O15530); conditions: cited from earlier work
Chain of PDK1 (O15530 whole entry): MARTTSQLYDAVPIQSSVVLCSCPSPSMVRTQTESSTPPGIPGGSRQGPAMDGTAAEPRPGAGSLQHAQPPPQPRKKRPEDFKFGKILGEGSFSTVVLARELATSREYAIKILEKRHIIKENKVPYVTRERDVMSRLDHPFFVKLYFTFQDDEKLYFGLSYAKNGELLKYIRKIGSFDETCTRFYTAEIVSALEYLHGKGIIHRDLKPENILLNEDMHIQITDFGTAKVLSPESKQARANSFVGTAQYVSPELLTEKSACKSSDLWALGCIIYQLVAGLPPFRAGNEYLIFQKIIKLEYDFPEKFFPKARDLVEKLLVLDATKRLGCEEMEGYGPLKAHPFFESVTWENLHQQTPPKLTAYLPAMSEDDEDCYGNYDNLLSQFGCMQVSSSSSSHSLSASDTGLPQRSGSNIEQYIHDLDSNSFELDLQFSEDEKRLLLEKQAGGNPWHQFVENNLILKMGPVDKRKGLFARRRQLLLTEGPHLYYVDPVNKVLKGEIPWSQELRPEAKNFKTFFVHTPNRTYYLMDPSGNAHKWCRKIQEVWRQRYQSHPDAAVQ

[26] = tested on: LXR; conditions: LXR agonist; cited from earlier work
[27] = target: mTOR (Homo sapiens, UniProt P42345); conditions: cited from earlier work
[28] = tested on: Bcr-Abl (T315I); conditions: cited from earlier work
[29] = tested on: Bcr-Abl (wildtype); conditions: cited from earlier work
[30] = tested on: OTC; assay: siRNA transfection of primary human hepatocytes, OTC qPCR; format: cell-based; conditions: siRNA 10 nM, 48hrs, vs control non-targeting siRNA
Procedure: Primary human hepatocytes were reversed transfected with 6pmol siRNA using RNAiMAX Reagent (ThermoFisher Cat No13778030) in 24 well format, 1 ul per well (for a final cone of 10 nM). The following morning, the medium was removed and replaced with Modified Maintenance Medium (see above) for an additional 24 hrs. The entire treatment lasted 48hrs, at which point the medium was removed and replaced with RLT Buffer for RNA extraction (Qiagen RNeasy 96 QIAcube HT Kit Cat#74171). siRNAs were obtained from Dharmacon and are a pool of four siRNA duplex all designed to target distinct sites within the specific gene of interest (known as “SMARTpool”). They were tested against the control non-targeting siRNA D-001206-13-05.
Isolated RNA was processed for cDNA synthesis and qPCR as described above. Taqman assay used for OTC measurement: Hs00166892_m1

[31] = RNA-seq, primary human hepatocytes, compounds that significantly increase NAGS expression
[32] = RNA-seq, primary human hepatocytes, compounds that significantly increase ARG1 expression
[33] = RNA-seq, primary human hepatocytes, compounds that significantly increase ASL expression

CCOC(=O)C1=C(COCCN)NC(C)=C(C(=O)OC)C1c1ccccc1Cl (centres unmarked) [Amlodipine Besylate]
IC50 [1]: 1.9 nM
NAGS expression, Fold change (Log 2) vs untreated [2, 31]: 0.73 Log 2

S=C(NCc1ccc2c(c1)OCO2)N1CCN(c2ncnc3c2oc2ccccc23)CC1 [Amuvatinib]
Max Value (OTC/Geo Mean of HKs; DMSO = 1) [3]: 3.21
IC50 [4]: 10 nM
Fold change (Log 2) vs untreated [5]: 0.69 Log 2
number of urea cycle genes whose expression was significantly up-regulated [6]: five
Up-regulated Genes [6]: CPS1, ASS1, ASL, OTC, ARG1
Fold change (Log 2) vs untreated [7]: 1.46 Log 2
ARG1 expression, Fold change (Log 2) vs untreated [8, 32]: 2.5 Log 2
IC50 [9]: 40 nM
Fold change (Log 2) vs untreated [10]: 1.15 Log 2
ASL expression, Fold change (Log 2) vs untreated [11, 33]: 0.81 Log 2
IC50 [12]: 81 nM

Cc1cc(-c2nc(-c3ccc(OC(F)(F)F)cc3)no2)nn1Cc1ccnc(N2CCN(C3CC3)CC2)c1 [BAY 87-2243]
number of urea cycle genes whose expression was significantly up-regulated [6]: three
Up-regulated Genes [6]: CPS1, ASL, ARG1
Fold change (Log 2) vs untreated [7]: 1.81 Log 2
ARG1 expression, Fold change (Log 2) vs untreated [8, 32]: 1.09 Log 2
ASL expression, Fold change (Log 2) vs untreated [11, 33]: 0.58 Log 2

COc1c(C)cnc(Cn2cnc3c(Cl)nc(N)nc32)c1C [BIIB021]
Max Value (OTC/Geo Mean of HKs; DMSO = 1) [3]: 1.66

COCCOCOc1cc2ccc(-c3ccc(C(=O)O)cc3)cc2cc1C12CC3CC(CC(C3)C1)C2 [CD 2665]
Kd [14]: 306 nM
NAGS expression, Fold change (Log 2) vs untreated [2]: 0.62 Log 2
Kd [15]: > 1000 nM
Kd [16]: 110 nM

COCCOc1ccc2c(c1)ncn2-c1ccc2cccc(N3CCC(N)CC3)c2n1 [CP-673451]
Max Value (OTC/Geo Mean of HKs; DMSO = 1) [3]: 3.97
Fold change (Log 2) vs untreated [5]: 1.52 Log 2
number of urea cycle genes whose expression was significantly up-regulated [6]: six
SLC25A15 expression, Fold change (Log 2) vs untreated [17]: 0.76 Log 2
Fold change (Log 2) vs untreated [7]: 1.77 Log 2
ARG1 expression, Fold change (Log 2) vs untreated [8, 32]: 3.21 Log 2
selectivity over other angiogenic receptors ([9]; PDGFRα/β): > 450 fold
IC50 [9]: 10 nM
Fold change (Log 2) vs untreated [10]: 2.63 Log 2
ASL expression, Fold change (Log 2) vs untreated [11, 33]: 1.81 Log 2
IC50 [18]: 1 nM

CNC[C@H](O)c1ccc(O)c(O)c1 [Epinephrine]
Fold change (Log 2) vs untreated [5]: 1.08 Log 2
number of urea cycle genes whose expression was significantly up-regulated [6]: five
SLC25A15 expression, Fold change (Log 2) vs untreated [17]: 1.14 Log 2
Fold change (Log 2) vs untreated [7]: 4.85 Log 2
ARG1 expression, Fold change (Log 2) vs untreated [8]: 2.28 Log 2
ASL expression, Fold change (Log 2) vs untreated [11]: 0.6 Log 2

COc1ccc2c(c1)c(C1=C(c3c[nH]c4ccccc34)C(=O)NC1=O)cn2CCCN(C)C [GO6983]
IC50 [19]: 10 nM
IC50 [20]: 7 nM
IC50 [21]: 6 nM
NAGS expression, Fold change (Log 2) vs untreated [2, 31]: 0.7 Log 2
IC50 [22]: 7 nM

O=C(O)CC[C@H]1CC[C@@](c2cc(F)ccc2F)(S(=O)(=O)c2ccc(Cl)cc2)CC1 [MK-0752]
IC50 [23]: 5 nM
ARG1 expression, Fold change (Log 2) vs untreated [8, 32]: 0.71 Log 2

Cc1ccc(C(=O)Nc2ccc(Oc3cc4cnn(C)c4cc3-c3cn[nH]c3)c(F)c2)c(=O)n1-c1ccc(F)cc1 [Merestinib]
half life (tt/2) [24]: 8.75 h

NCC(=O)Nc1ccc(-n2nc(C(F)(F)F)cc2-c2ccc3c(ccc4ccccc43)c2)cc1 [OSU-03012]
increase in potency over OSU-02067 [25]: 2 fold
NAGS expression, Fold change (Log 2) vs untreated [2, 31]: 1.03 Log 2

O=C1CCC(N2C(=O)c3ccccc3C2=O)C(=O)N1 (centres unmarked) [Thalidomide]
NAGS expression, Fold change (Log 2) vs untreated [2]: 1.1 Log 2
number of urea cycle genes whose expression was significantly up-regulated [6]: five
Up-regulated Genes [6]: NAGS, CPS1, ALS, OTC, ARG1
Fold change (Log 2) vs untreated [7]: 1.02 Log 2
ARG1 expression, Fold change (Log 2) vs untreated [8, 32]: 1.16 Log 2
Fold change (Log 2) vs untreated [10]: 1.21 Log 2
ASL expression, Fold change (Log 2) vs untreated [11, 33]: 0.56 Log 2

CNC(=O)Nc1ccc(-c2nc(N3CC4CCC(C3)O4)c3cnn(C4CCC5(CC4)OCCO5)c3n2)cc1 [WYE-125132 (WYE-132)]
IC50 [27]: 0.19 nM
NAGS expression, Fold change (Log 2) vs untreated [2, 31]: 0.64 Log 2

GZD824 Dimesylate
IC50 [28]: 0.68 nM
number of urea cycle genes whose expression was significantly up-regulated [6]: three
Up-regulated Genes [6]: CPS1, ARG1, SLC25A15
IC50 [29]: 0.34 nM

IGF-1: Insulin-like growth factor I; IGF-1R activator
number of urea cycle genes whose expression was significantly up-regulated [6]: four
Up-regulated Genes [6]: CPS1, OTC, ARG1, SLC25A15
SLC25A15 expression, Fold change (Log 2) vs untreated [17]: 0.8 Log 2
Fold change (Log 2) vs untreated [7]: 2.22 Log 2
ARG1 expression, Fold change (Log 2) vs untreated [8, 32]: 1.89 Log 2
Max fold change in OTC [30]: 1.69
Fold change (Log 2) vs untreated [10]: 0.76 Log 2

IRF1 (DNA GAAAGTGAAAGT; siRNA; chemistry not fully specified)
Max fold change in OTC [30]: 1.70

Yy1
Max fold change in OTC [30]: 1.71

B1: GDF2 (BMP9): member of BMP family and the TGF-B superfamily (protein, UniProt Q9UK05 320-429, looked up)
Growth/differentiation factor …: SAGAGSHCQKTSLRVNFEDIGWDSWIIAPKEYEAYECKGGCFFPLADDVTPTKHAIVQTLVHLKFPTKVGKACCVPTKLSPISVLYKDDMGVPTLKYHYEGMSVAECGCR
Fold change (Log 2) vs untreated [5]: 1.34 Log 2
NAGS expression, Fold change (Log 2) vs untreated [2]: 0.63 Log 2
number of urea cycle genes whose expression was significantly up-regulated [6]: five
SLC25A15 expression, Fold change (Log 2) vs untreated [17]: 1.09 Log 2
Fold change (Log 2) vs untreated [7]: 3.46 Log 2
ARG1 expression, Fold change (Log 2) vs untreated [8, 32]: 1.79 Log 2
